Test results published in PubChem BioAssay AID328 (DTP/NCI, 2004).
Several values for one entry are separate records, joined by “and”; a condition that tells them apart may be missing. Equal values may be shown once. Toxic doses and inconclusive results are not listed. How the source made its calls: active means survival T/C of 150% or more; inactive means T/C below 125% in these data.

System: BDF1 mice, P388 leukemia ip, median survival T/C
Test: NCI In Vivo Anticancer Drug Screen. Data for tumor model P388 Leukemia (intraperitoneal) in B6D2F1 (BDF1) mice
Conditions: endpoint: median survival time, higher = longer survival
Method in brief: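 T/C = treated-group survival ÷ vehicle-control survival; tumour transplanted into mice before dosing.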

[1] = dose: 25.0 mg/kg/injection, schedule: Q01DX009 (ip), vehicle: saline with Tween-80
[2] = dose: 50.0 mg/kg/injection, schedule: Q01DX009 (ip), vehicle: saline with Tween-80
[3] = dose: 100.0 mg/kg/injection, schedule: Q01DX009 (ip), vehicle: saline with Tween-80
[4] = dose: 200.0 mg/kg/injection, schedule: Q01DX009 (ip), vehicle: saline with Tween-80
[5] = dose: 100.0 mg/kg/injection, schedule: Q04DX003 (ip), vehicle: saline with Tween-80
[6] = dose: 200.0 mg/kg/injection, schedule: Q04DX003 (ip), vehicle: saline with Tween-80
[7] = dose: 400.0 mg/kg/injection, schedule: Q04DX003 (ip), vehicle: saline with Tween-80
[8] = dose: 100.0 mg/kg/injection, schedule: Q04DX003 (ip), vehicle: other
[9] = dose: 200.0 mg/kg/injection, schedule: Q04DX003 (ip), vehicle: other
[10] = dose: 400.0 mg/kg/injection, schedule: Q04DX003 (ip), vehicle: other

Measured: T/C

CCC[n+]1ccc(/C=N\NC(N)=S)c2ccccc21
inactive: [1] 94 % of control | [2] 103 % of control | [3] 122 % of control | [4] 122 % of control

O=C(C[N+]12CN3CN(CN(C3)C1)C2)c1ccc(Cl)cc1
inactive: dose: 25.0 mg/kg/injection, schedule: Q04DX003 (ip), vehicle: saline 100 % of control | dose: 44.0 mg/kg/injection, schedule: Q04DX003 (ip), vehicle: saline sonified 104 % of control | [2] 107 % of control | dose: 50.0 mg/kg/injection, schedule: Q04DX003 (ip), vehicle: saline 110 % of control | dose: 66.0 mg/kg/injection, schedule: Q04DX003 (ip), vehicle: saline sonified 118 % of control | [3] 119 % of control | [4] 119 % of control

Cc1cccc(NC=O)c1
inactive: [2] 109 % of control | dose: 75.0 mg/kg/injection, schedule: Q01DX009 (ip), vehicle: saline with Tween-80 113 % of control | [5] 115 % of control | dose: 115.0 mg/kg/injection, schedule: Q01DX009 (ip), vehicle: saline with Tween-80 104 % of control | [6] 96 % of control | dose: 225.0 mg/kg/injection, schedule: Q01DX009 (ip), vehicle: saline with Tween-80 109 % of control | dose: 300.0 mg/kg/injection, schedule: Q01DX009 (ip), vehicle: saline with Tween-80 113 % of control | [7] 96 % of control

CC(C)CC(B1OCCO1)(C1CCCCC1)C1CCCCC1
inactive: dose: 12.5 mg/kg/injection, schedule: Q01DX009 (ip), vehicle: saline with Tween-80 100 % of control | [1] 100 % of control | [2] 90 % of control | [8] 109 % of control | [9] 122 % of control | [10] 122 % of control

COc1c2c(c3c(c1OC)c(=O)c1ccccc1n3C)OCO2
inactive: dose: 45.0 mg/kg/injection, schedule: Q01DX010 (ip), vehicle: carboxymethylcellulose (CMC) 90 % of control | dose: 90.0 mg/kg/injection, schedule: Q01DX010 (ip), vehicle: carboxymethylcellulose (CMC) 104 % of control | dose: 180.0 mg/kg/injection, schedule: Q01DX010 (ip), vehicle: carboxymethylcellulose (CMC) 95 % of control

O=C1OC(c2ccccc2)=C/C1=C/c1ccc([N+](=O)[O-])cc1
inactive: [1] 104 % of control | [2] 90 % of control | dose: 50.0 mg/kg/injection, schedule: Q04DX003 (ip), vehicle: saline with Tween-80 105 % of control | [3] 100 % of control | [5] 109 % of control | [4] 92 % of control | [6] 99 % of control and 104 % of control | dose: 300.0 mg/kg/injection, schedule: Q04DX003 (ip), vehicle: saline with Tween-80 87 % of control | dose: 400.0 mg/kg/injection, schedule: Q01DX009 (ip), vehicle: saline with Tween-80 92 % of control | [7] 96 % of control | dose: 600.0 mg/kg/injection, schedule: Q04DX003 (ip), vehicle: saline with Tween-80 91 % of control

CN(C)CC(C(=O)c1ccc(Br)cc1)C(Br)c1ccccc1 (centres undefined)
inactive: dose: 0.78 mg/kg/injection, schedule: Q01DX009 (ip), vehicle: Klucel (hydroxypropylcellulose) (HPC) 100 % of control | dose: 1.56 mg/kg/injection, schedule: Q01DX009 (ip), vehicle: Klucel (hydroxypropylcellulose) (HPC) 95 % of control | dose: 3.12 mg/kg/injection, schedule: Q01DX009 (ip), vehicle: Klucel (hydroxypropylcellulose) (HPC) 108 % of control | dose: 4.6 mg/kg/injection, schedule: Q01DX009 (ip), vehicle: saline 113 % of control | dose: 7.0 mg/kg/injection, schedule: Q01DX009 (ip), vehicle: saline 118 % of control | dose: 10.0 mg/kg/injection, schedule: Q01DX009 (ip), vehicle: saline 109 % of control | dose: 14.0 mg/kg/injection, schedule: Q01DX009 (ip), vehicle: saline 108 % of control | dose: 16.25 mg/kg/injection, schedule: Q04DX003 (ip), vehicle: saline 100 % of control | dose: 22.0 mg/kg/injection, schedule: Q01DX009 (ip), vehicle: saline 108 % of control | dose: 32.5 mg/kg/injection, schedule: Q04DX003 (ip), vehicle: saline 105 % of control | dose: 65.0 mg/kg/injection, schedule: Q04DX003 (ip), vehicle: saline 110 % of control

CC1=Nc2ccccc2N(C)/C1=C/C1=C(Cl)C(=O)c2ccccc2C1=O
inactive: dose: 25.0 mg/kg/injection, schedule: Q01DX001 (ip), vehicle: saline with Tween-80 103 % of control | dose: 50.0 mg/kg/injection, schedule: Q01DX001 (ip), vehicle: saline with Tween-80 94 % of control | dose: 100.0 mg/kg/injection, schedule: Q01DX001 (ip), vehicle: saline with Tween-80 108 % of control

NC(=O)c1nc2c([nH]c1=O)CCCC2
inactive: dose: 50.0 mg/kg/injection, schedule: Q01DX009 (ip), vehicle: saline 101 % of control | dose: 100.0 mg/kg/injection, schedule: Q01DX009 (ip), vehicle: saline 100 % of control | dose: 100.0 mg/kg/injection, schedule: Q04DX003 (ip), vehicle: saline 109 % of control | dose: 200.0 mg/kg/injection, schedule: Q01DX009 (ip), vehicle: saline 110 % of control | dose: 200.0 mg/kg/injection, schedule: Q04DX003 (ip), vehicle: saline 104 % of control | dose: 400.0 mg/kg/injection, schedule: Q01DX009 (ip), vehicle: saline 93 % of control | dose: 400.0 mg/kg/injection, schedule: Q04DX003 (ip), vehicle: saline 95 % of control

Cc1ccc(NC(=O)c2ccccc2Cl)c(C)c1
inactive: [5] 100 % of control | [6] 100 % of control | [7] 109 % of control

CCOC(=O)C1CCC(C(=O)OCC)N1c1ccc(C=O)cc1 (centres undefined)
inactive: dose: 100.0 mg/kg/injection, schedule: Q01DX009 (ip), vehicle: Klucel (hydroxypropylcellulose) (HPC) 122 % of control | dose: 100.0 mg/kg/injection, schedule: Q04DX003 (ip), vehicle: Klucel (hydroxypropylcellulose) (HPC) 105 % of control | dose: 200.0 mg/kg/injection, schedule: Q01DX009 (ip), vehicle: Klucel (hydroxypropylcellulose) (HPC) 105 % of control | dose: 200.0 mg/kg/injection, schedule: Q04DX003 (ip), vehicle: Klucel (hydroxypropylcellulose) (HPC) 100 % of control | dose: 400.0 mg/kg/injection, schedule: Q01DX009 (ip), vehicle: Klucel (hydroxypropylcellulose) (HPC) 122 % of control | dose: 400.0 mg/kg/injection, schedule: Q04DX003 (ip), vehicle: Klucel (hydroxypropylcellulose) (HPC) 100 % of control

COc1cccc(/C=C/[N+](=O)[O-])c1
inactive: dose: 15.0 mg/kg/injection, schedule: Q01DX009 (ip), vehicle: saline with Tween-80 108 % of control | dose: 20.0 mg/kg/injection, schedule: Q01DX009 (ip), vehicle: Klucel (hydroxypropylcellulose) (HPC) 107 % of control | dose: 30.0 mg/kg/injection, schedule: Q01DX009 (ip), vehicle: Klucel (hydroxypropylcellulose) (HPC) 115 % of control | dose: 60.0 mg/kg/injection, schedule: Q01DX009 (ip), vehicle: saline with Tween-80 100 % of control

O.[Cu].[Cu]
inactive: dose: 6.25 mg/kg/injection, schedule: Q01DX009 (ip), vehicle: Klucel (hydroxypropylcellulose) (HPC) 90 % of control | dose: 6.25 mg/kg/injection, schedule: Q04DX003 (ip), vehicle: Klucel (hydroxypropylcellulose) (HPC) 90 % of control | dose: 12.5 mg/kg/injection, schedule: Q01DX009 (ip), vehicle: Klucel (hydroxypropylcellulose) (HPC) 110 % of control | dose: 12.5 mg/kg/injection, schedule: Q04DX003 (ip), vehicle: Klucel (hydroxypropylcellulose) (HPC) 90 % of control | dose: 25.0 mg/kg/injection, schedule: Q01DX009 (ip), vehicle: Klucel (hydroxypropylcellulose) (HPC) 95 % of control | dose: 25.0 mg/kg/injection, schedule: Q04DX003 (ip), vehicle: Klucel (hydroxypropylcellulose) (HPC) 118 % of control

O=[N+]([O-])c1ccc2c(c1)CCCC2
inactive: dose: 100.0 mg/kg/injection, schedule: Q01DX009 (ip), vehicle: other 113 % of control | [8] 109 % of control | dose: 200.0 mg/kg/injection, schedule: Q01DX009 (ip), vehicle: other 118 % of control | [9] 118 % of control | dose: 400.0 mg/kg/injection, schedule: Q01DX009 (ip), vehicle: other 122 % of control | [10] 113 % of control

O=C1c2ccccc2C(=O)c2cc3c(cc21)CCCC3
inactive: dose: 50.0 mg/kg/injection, schedule: Q01DX009 (ip), vehicle: water 94 % of control | dose: 100.0 mg/kg/injection, schedule: Q01DX009 (ip), vehicle: water 87 % of control | dose: 400.0 mg/kg/injection, schedule: Q01DX009 (ip), vehicle: water 96 % of control | dose: 800.0 mg/kg/injection, schedule: Q01DX009 (ip), vehicle: water 107 % of control
